Experimental data: ChEMBL document CHEMBL3352382, “New benzimidazole-2-urea derivates as tubulin inhibitors” (Bioorg Med Chem Lett, 2014)
Activity calls are given as the source filed them. The rule behind the calls is not given here.

Assays:
[1] = tested on: NCI-H460; assay: Cytotoxicity against human NCI-H460 cells assessed as growth inhibition by MTT assay; assay type: functional, cell-based
[2] = tested on: COLO 205; assay: Cytotoxicity against human COLO205 cells assessed as growth inhibition by MTT assay; assay type: functional, cell-based
[3] = molecular target: T1, Tubulin (Homo sapiens) (UniProt P68371+Q9H4B7+P0DPH7+P68366+Q13509+Q71U36+P04350+Q3ZCM7+P07437+P68363+Q9BQE3+Q6PEY2+Q13885+Q9BVA1+Q9BUF5); assay: Inhibition of tubulin in human NCI-H460 cells assessed as depolymerization of microtubule cytoskeleton after 8 hrs by immunofluorescence technique; assay type: cell-based
[4] = molecular target: T1, Tubulin (Homo sapiens); assay: Inhibition of tubulin in human NCI-H460 cells assessed as reduction in spindles formation at 100 nM after 8 hrs by immunofluorescence technique; assay type: cell-based
[5] = tested on: K562; assay: Cytotoxicity against human K562 cells assessed as growth inhibition after 72 hrs by CCK-8 assay; assay type: functional, cell-based; details: K562, 72 h
[6] = tested on: A-431; assay: Cytotoxicity against human A431 cells assessed as growth inhibition after 72 hrs by CCK-8 assay; assay type: functional, cell-based; details: A-431, 72 h
[7] = tested on: HepG2; assay: Cytotoxicity against human HepG2 cells assessed as growth inhibition after 72 hrs by CCK-8 assay; assay type: functional, cell-based; details: HepG2, 72 h
[8] = tested on: HeLa; assay: Cytotoxicity against human HeLa cells assessed as growth inhibition after 72 hrs by CCK-8 assay; assay type: functional, cell-based
[9] = Cytotoxicity against human MDA-MB-435S cells assessed as growth inhibition after 72 hrs by CCK-8 assay; assay type: functional, cell-based

| Activity [3] | Activity [4] | Structure (SMILES) | IC50 [1] [nM] | IC50 [2] [nM] | IC50 [5] [nM] | IC50 [6] [nM] | IC50 [7] [nM] | IC50 [8] [nM] | IC50 [9] [nM] |
| --- | --- | --- | --- | --- | --- | --- | --- | --- | --- |
| – | – | O=C(Cc1ccccc1)Nc1nc2cc(Oc3ccccc3)ccc2[nH]1 | > 10000 | 11400 | – | – | – | – | – |
| Dose-dependent effect | Active | CNC(=O)Nc1nc2cc(Oc3cccc(C#N)c3)ccc2[nH]1 | – | – | – | – | – | – | – |
| – | – | COc1cc2c(c(OC)c1OC)-c1ccc(OC)c(=O)cc1[C@@H](NC(C)=O)CC2 [COLCHICINE] | 21 | 3 | 1 | 8 | 1710 | 704 | 7 |
| – | – | CC(=O)O[C@H]1C(=O)[C@@]2(C)[C@H]([C@H](OC(=O)c3ccccc3)[C@]3(O)C[C@H](OC(=O)[C@H](O)[C@@H](NC(=O)c4ccccc4)c4ccccc4)C(C)=C1C3(C)C)[C@]1(OC(C)=O)CO[C@@H]1C[C@@H]2O [PACLITAXEL] | 10 | 3 | 4 | 7 | 990 | 410 | 9 |
